In series [1] the target is Voltage-gated inwardly rectifying potassium channel KCNH2 (Homo sapiens, UniProt Q12809).
The nature of series [2]: Permeability from basolateral to apical side of the Caco-2 cell membrane. In kind it is ADME, cell-based. The conditions noted are these: human.
Series [3] can be described thus: Permeability from apical to basolateral side of the Caco-2 cell membrane. It is filed as ADME, cell-based. The conditions noted are these: human. On the technique in general: Caco-2 monolayers are a common model of the intestinal barrier.
In another series the target is hERG (KCNH2) (Homo sapiens, UniProt Q12809). As to the kind of experiment: in vitro. The conditions noted are these: HEK293 cells that express hERG. (In general: Block of hERG is tested as a sign of cardiac risk.)

Molecules are shown by their SMILES. pKi: −log10 of the molar value. A value given as a limit tells only on which side of the number the result lay.

The results in this text go back to ChEMBL document CHEMBL1145378 (J Med Chem, 2007).

Sequence of Voltage-gated inwardly rectifying potassium channel KCNH2 (Q12809 whole entry): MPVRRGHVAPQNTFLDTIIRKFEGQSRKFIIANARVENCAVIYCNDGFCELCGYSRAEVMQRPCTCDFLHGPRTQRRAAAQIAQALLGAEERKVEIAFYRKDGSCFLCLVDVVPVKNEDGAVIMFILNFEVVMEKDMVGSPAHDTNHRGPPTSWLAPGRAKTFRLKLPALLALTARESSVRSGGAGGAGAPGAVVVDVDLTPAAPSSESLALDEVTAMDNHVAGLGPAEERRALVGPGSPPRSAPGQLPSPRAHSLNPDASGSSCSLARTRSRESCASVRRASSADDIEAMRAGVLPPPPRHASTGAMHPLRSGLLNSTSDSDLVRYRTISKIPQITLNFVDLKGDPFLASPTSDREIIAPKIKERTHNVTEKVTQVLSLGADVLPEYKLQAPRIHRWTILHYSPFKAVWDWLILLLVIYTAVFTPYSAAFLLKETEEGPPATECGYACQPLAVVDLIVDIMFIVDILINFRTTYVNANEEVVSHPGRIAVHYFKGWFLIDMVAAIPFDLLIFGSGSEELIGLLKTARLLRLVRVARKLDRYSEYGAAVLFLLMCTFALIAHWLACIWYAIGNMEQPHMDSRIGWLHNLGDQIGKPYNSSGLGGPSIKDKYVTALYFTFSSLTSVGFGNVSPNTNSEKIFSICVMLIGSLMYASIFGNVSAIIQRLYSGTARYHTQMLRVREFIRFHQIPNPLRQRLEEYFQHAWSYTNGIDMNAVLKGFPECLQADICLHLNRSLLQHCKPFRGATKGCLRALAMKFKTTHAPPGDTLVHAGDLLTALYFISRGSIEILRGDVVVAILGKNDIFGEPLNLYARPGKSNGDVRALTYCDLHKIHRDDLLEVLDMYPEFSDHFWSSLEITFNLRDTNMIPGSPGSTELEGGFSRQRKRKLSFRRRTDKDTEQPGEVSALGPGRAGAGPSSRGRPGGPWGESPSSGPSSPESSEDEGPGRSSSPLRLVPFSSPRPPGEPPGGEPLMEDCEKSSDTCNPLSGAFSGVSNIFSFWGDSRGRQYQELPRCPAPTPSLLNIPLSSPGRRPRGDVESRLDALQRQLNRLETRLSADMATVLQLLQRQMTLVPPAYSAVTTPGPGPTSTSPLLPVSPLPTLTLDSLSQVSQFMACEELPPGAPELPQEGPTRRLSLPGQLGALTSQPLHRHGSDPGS
Sequence of hERG (KCNH2) (Q12809 whole entry): as above

`CC1(C)C2=C3C=C4C5=[N+](CCC4OC3CCN2c2ccc(CCCCCC(=O)NCCCCCCN(CCOc3ccc(NS(C)(=O)=O)cc3)CCc3ccc(NS(C)(=O)=O)cc3)cc21)c1ccc(S(=O)(=O)[O-])cc1C5(C)C` (configuration not stated) gave a negative-log Ki (pKi) in series [1] of 8.00. Consider `CC1(C)C2=C3C=C4C5=[N+](CCC4OC3CCN2c2ccc(CC(=O)NCCCCCN(CCOc3ccc(NS(C)(=O)=O)cc3)CCc3ccc(NS(C)(=O)=O)cc3)cc21)c1ccc(S(=O)(=O)[O-])cc1C5(C)C` (configuration not stated), for which, in series [1], the pKi is 7.89. Regarding `CS(=O)(=O)Nc1ccc(CCN(CCOc2ccc(NS(C)(=O)=O)cc2)c2ccc([N+](=O)[O-])c3nonc23)cc1`, the Papp B→A in series [2] is 18 ×10⁻⁶ cm/s. In series [3], this molecule registered a Papp A→B of 3.7 ×10⁻⁶ cm/s. The molecule `CC1(C)C2=C3C=C4C5=[N+](CCC4OC3CCN2c2ccc(CC(=O)NCCCN(CCOc3ccc(NS(C)(=O)=O)cc3)CCc3ccc(NS(C)(=O)=O)cc3)cc21)c1ccc(S(=O)(=O)[O-])cc1C5(C)C` (configuration not stated) had a pKi in series [1] of 6.80.

With `CCNC(=O)Cc1ccc2c(c1)C(C)(C)C1C3C=C4C5=[N+](CCC4OC3CCN21)c1ccc(S(=O)(=O)[O-])cc1C5(C)C` (configuration not stated), the pKi in series [1] was under 6.00. Regarding `CC1(C)C2=C3C=C4C5=[N+](CCC4OC3CCN2c2ccc(CC(=O)NCCN(CCOc3ccc(NS(C)(=O)=O)cc3)CCc3ccc(NS(C)(=O)=O)cc3)cc21)c1ccc(S(=O)(=O)[O-])cc1C5(C)C` (configuration not stated), the pKi in series [1] was 5.14. For `CN(C)c1ccc2c(c1)Oc1cc(N(C)C)ccc1C21OC(=O)c2cc(C(=O)NCCCCCCN(CCOc3ccc(NS(C)(=O)=O)cc3)CCc3ccc(NS(C)(=O)=O)cc3)ccc21`, the pKi in series [1] is 7.05. In series [1], `CN(C)c1ccc2c(c1)Oc1cc(N(C)C)ccc1C21OC(=O)c2cc(C(=O)N(CCOc3ccc(NS(C)(=O)=O)cc3)CCc3ccc(NS(C)(=O)=O)cc3)ccc21` showed a pKi of under 6.00. Turning to `CS(=O)(=O)Nc1ccc(CCN(CCCCCCNC(=O)c2ccc3c(c2)C(=O)OC32c3ccc(O)cc3Oc3cc(O)ccc32)CCOc2ccc(NS(C)(=O)=O)cc2)cc1`, in series [1], the pKi is 7.82. `CS(=O)(=O)Nc1ccc(CCN(CCOc2ccc(NS(C)(=O)=O)cc2)C(=O)c2ccc3c(c2)C(=O)OC32c3ccc(O)cc3Oc3cc(O)ccc32)cc1` had a pKi in series [1] of 6.01. In series [1], `CCN1CCCc2cc3c(cc21)OC1=CC2=[N+](CCCC(=O)N(CCOc4ccc(NS(C)(=O)=O)cc4)CCc4ccc(NS(C)(=O)=O)cc4)CCCC2=CC1N3` (configuration not stated) had a pKi of 8.44. On the same count and under the same terms, with `CC1(C)C2=C3C=C4C5=[N+](CCC4OC3CCN2c2ccc(CC(=O)NCCCCN(CCOc3ccc(NS(C)(=O)=O)cc3)CCc3ccc(NS(C)(=O)=O)cc3)cc21)c1ccc(S(=O)(=O)[O-])cc1C5(C)C` (configuration not stated) the figure was 7.74; with `CC1(C)C2=C3C=C4C5=[N+](CCC4OC3CCN2c2ccc(CCC(=O)NCCCCCCN(CCOc3ccc(NS(C)(=O)=O)cc3)CCc3ccc(NS(C)(=O)=O)cc3)cc21)c1ccc(S(=O)(=O)[O-])cc1C5(C)C` (configuration not stated), 7.72. On to `CN(CCOc1ccc(NS(C)(=O)=O)cc1)CCc1ccc(NS(C)(=O)=O)cc1` [DOFETILIDE], for which the inhibition at 0.025 µM against hERG (KCNH2) came out at 80%. Also, the apparent permeability from basolateral to apical (Papp B→A) in series [2] is 14.3 ×10⁻⁶ cm/s. For the same molecule, the Papp A→B in series [3] was determined as 15.7 ×10⁻⁶ cm/s.

Broadly, the pKi is −log10 of the Ki, conventionally taken in molar units. Low readings indicate a high Ki, high ones a low Ki. The term Papp B→A denotes how fast a substance crosses the layer from the basolateral side. For orientation: Papp A→B means how fast a substance crosses the layer from the apical side. What is called inhibition is the share of the control response that was lost under treatment. High values mean a response far below the control, low ones a response near the control.
